Laboratory results published in article PMC13213488, “Small Molecule Activators of Protein Phosphatase 2A Exert Global Stabilizing Effects on the Scaffold PR65” (JACS Au, 2026).

Target: T1, PR65 (Homo sapiens, UniProt P30153)
T1 construct: gene PPP2R1A; WT PR65 alone (scaffold, 15 HEAT repeats, no B or C subunit), expressed in E. coli C41 as GST fusion, GST tag cleaved with thrombin; also a variant with ybbR tags at N- and C-termini used for optical tweezers
Assay: nanoDSF thermal shift
Type: binding
Conditions: melting temperature with ligand, not a shift (apo 52.7 ± 0.1 °C); 2 μM PR65, 100 μM ligand, PBS, 2 mM DTT, 10% DMSO

T1 sequence (P30153 2-589): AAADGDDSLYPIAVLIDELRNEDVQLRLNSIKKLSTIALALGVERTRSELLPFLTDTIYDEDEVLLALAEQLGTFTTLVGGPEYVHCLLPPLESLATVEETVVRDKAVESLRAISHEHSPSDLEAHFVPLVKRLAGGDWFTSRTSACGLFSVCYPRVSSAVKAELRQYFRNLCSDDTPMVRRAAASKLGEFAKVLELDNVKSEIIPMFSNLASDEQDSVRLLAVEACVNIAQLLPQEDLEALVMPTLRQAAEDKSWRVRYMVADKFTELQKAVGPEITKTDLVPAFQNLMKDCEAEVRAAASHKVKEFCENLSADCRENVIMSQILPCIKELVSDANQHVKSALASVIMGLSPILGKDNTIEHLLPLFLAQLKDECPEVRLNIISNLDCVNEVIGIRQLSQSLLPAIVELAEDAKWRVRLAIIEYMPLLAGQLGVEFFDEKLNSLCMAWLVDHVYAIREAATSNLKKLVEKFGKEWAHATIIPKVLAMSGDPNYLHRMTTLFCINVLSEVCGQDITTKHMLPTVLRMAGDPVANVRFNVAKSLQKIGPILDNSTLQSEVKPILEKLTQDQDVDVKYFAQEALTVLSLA

T m: 53.5 ± 0.1 °C
Substance: DBK-766
